Data published in patent publication US8003659B2, “Macrocyclic serine protease inhibitors” (Indenix Pharmaceuticals, Inc., priority 2008, dated 2011).
Where two headings read alike, the source gives them in different places.

Columns and labels:
[1] = tested on: Huh-7 cells containing HCV Con1 subgenomic replicon (GS4.1 cells); test: HCV Replicon Assay (NS4A ELISA); type: cell-based; conditions: Hepatitis C virus, Huh-7, 72 hr, NS4A protein by ELISA
Procedure, shortened: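 GS4.1 cells (Huh-7 with HCV Con1 subgenomic replicon) given ten 2-fold compound dilutions (top 75 μM) or a single 15 μM dose in 0.5% DMSO for 72 h at 37 °C. NS4A measured by cell ELISA (A492); EC50 from four-parameter sigmoidal fit, single-dose results as % inhibition at 15 μM.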

[2] = Cytotoxicity evaluation (Cell Titer 96 AQueous One Solution Cell Proliferation Assay); type: cell-based; conditions: human; GS4.1 cells, cellular viability
Description: (§1) For cytotoxicity evaluation, GS4.1 cells were treated with compounds as described above and cellular viability was monitored using the Cell Titer 96 AQueous One Solution Cell Proliferation Assay (Promega). CC50 values were determined from the % cytotoxicity versus concentration data with Tecan Magellan software as described above.

[3] = tested on: HCV genotype 2a infectious virus; test: HCV genotype 2a infectious virus assay; type: cell-based, HCV (strain JFH-1; genotype 2a); conditions: Hepatitis C virus
Description: (§2) Compounds were tested in a HCV genotype 2a infectious virus assay and the results are summarized in Table 7, wherein A represents a value smaller than 1 μM, and B represents a value between 1 μM to 10 μM, C represents a value between 10 μM to 75 μM and D represents a value greater than 75 μM.
The HCV in vitro infection core ELISA assay measures the ability of a test compound to inhibit replication of an infectious HCV (strain JFH-1; genotype 2a) in cell culture. […] We have developed this model for determining the efficacy of antiviral compounds against an infectious virus in vitro using HCV producing cells (HPC), a proprietary Huh-7-derived cell sublineage capable of propagating the JFH-1 HCV virus. The readout of the assay is quantification of HCV core protein by ELISA 5 days post infection with JFH-1 virus and treatment with a test compound.
Ninety-six-well Corning Costar plates were seeded with HPC cells at a density of 3.0×10^3 cells per well in 50 μL of Huh-7 media. Compound stock solutions were made up freshly in Huh-7 media (DMEM (containing glucose, L-glutamine and sodium pyruvate), 10% FBS, 100 IU/mL penicillin, 100 μg/mL streptomycin, 2 mM GlutaMAX, 1% MEM non-essential amino acids) as 2× stock. Seven additional 3-fold drug dilutions were prepared from the 2× stocks in Huh-7 media. At least 4 hours after HPC cells were seeded, the media in the 96-well culture plates was aspirated and 50 μL of each drug dilution and 50 μL of JFH-1 HCV was added to each well.
At 16 hrs post treatment and infection, the virus inoculum was removed by aspiration. The cultures were treated at the same final concentrations of drug diluted to 1× in Huh-7 media to a final volume of 200 μL. Cells were incubated in the presence of drug for 4 additional days at 37° C./5% CO2.
Media was removed from the plates by aspiration. Cells were fixed with 250 μL 1:1 acetone:methanol for 90 seconds, washed once in PBS and then three times with 1×KPL wash solution. The assay plates were then blocked with 150 μL/well 10% FBS-TNE (50 mM Tris-HCl (pH 7.5; Sigma), 100 mM NaCl, 1 mM EDTA with 10% FBS) for 1 hr at room temperature. Cells were washed three times with 1×KPL wash solution and incubated with 100 μL/well anti-hepatitis C core mAb (1 mg/mL stock diluted 1:500 in 10% FBS-TNE) for 2 hours at 37° C. Cells were washed three times with 1×KPL wash solution and incubated with 100 μL/well HRP-goat anti-mouse antibody (diluted 1:2,500 in 10% FBS-TNE) for 1 hr at 37° C.
OPD solution was prepared using 1 OPD tablet+12 mL citrate/phosphate buffer (16 mM citric acid, 27 mM Na2HPO4) plus 5 μL 30% H2O2 per plate. Cells were washed three times with 1×KPL wash solution and developed with 100 μL/well OPD solution for 30 minutes in the dark at room temperature. The reaction was stopped with 100 μL/well of 2NH2SO4, and absorbance measured at A490 nm in a Victor^3 V 1420 multilabel counter (Perkin Elmer). The EC50 values for each compound were calculated from dose response curves from the resulting best-fit equations determined by Microsoft Excel and XLfit 4.1 software. The negative control for inhibition of virus replication was untreated HPC cells infected with the JFH-1 HCV virus strain. The negative ELISA control was untreated, uninfected HPC cells. The positive ELISA control was untreated HPC cells infected the JFH-1 HCV virus strain.

[4] = Cytotoxicity (CC50) in the genotype 1b replicon assay; type: cell-based; conditions: human, genotype 1b replicon assay as described in Example 32
Description: as §1
as §2, with “a” for “a HCV”, “1b replicon” for “2a infectious virus”, “assay as described in Example 32” for “assay”, “6,” for “7,”

HCV NS3-NS4A protease = molecular target: T1, HCV NS3-NS4A protease (Hepatitis C virus genotype 1b, UniProt P26663); test: HCV Protease Assay (SensoLyte 620 HCV Protease Assay kit); type: biochemical; conditions: 1.2 nM HCV NS3-NS4A protease, 60 min at room temperature, 5% DMSO
T1 construct: made in house
Procedure, shortened: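 Protease at 1.2 nM, run with the SensoLyte 620 fluorogenic kit under supplier conditions, with compounds at several concentrations in buffer with 5% final DMSO. Reactions ran 60 min at room temperature before fluorescence reading; IC50 from four-parameter sigmoidal fit of percent inhibition.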

genotype 1b replicon = test: Antiviral activity in a genotype 1b replicon assay; type: cell-based, HCV; conditions: Hepatitis C virus
Description: General procedure: Huh-7 cells containing HCV Con1 subgenomic replicon (GS4.1 cells) were grown in Dulbecco's Modified Eagle Medium (DMEM) supplemented with 10% fetal bovine serum (FBS), 2 mM L-glutamine, 110 mg/L sodium pyruvate, 1× non-essential amino acids, 100 U/mL penicillin-streptomycin, and 0.5 mg/mL G418 (Invitrogen). For dose-response testing, the cells were seeded in 96-well plates at 7.5×10^3 cells/well in a volume of 50 μL, and incubated at 37° C./5% CO2. Three hours after plating, 50 μL of ten 2-fold serial dilutions of compounds (highest concentration, 75 μM) were added, and cell cultures were incubated at 37° C./5% CO2 in the presence of 0.5% DMSO. Alternatively, compounds were tested at a single concentration of 15 μM. In all cases, Huh-7 cells lacking the HCV replicon served as negative control. The cells were incubated in the presence of compounds for 72 hr after which they were monitored for expression of the NS4A protein by enzyme-linked immunosorbent assay (ELISA). For this, the plates were then fixed for 1 min with acetone/methanol (1:1, v/v), washed twice with phosphate-buffered saline (PBS), 0.1% Tween 20, blocked for 1 hr at room temperature with TNE buffer containing 10% FBS and then incubated for 2 hr at 37° C. with the anti-NS4A mouse monoclonal antibody A-236 (ViroGen) diluted in the same buffer. After washing three times with PBS, 0.1% Tween 20, the cells were incubated 1 hr at 37° C. with anti-mouse immunoglobulin G-peroxidase conjugate in TNE, 10% FBS. After washing as described above, the reaction was developed with O-phenylenediamine (Zymed). The reaction was stopped after 30 min with 2 NH2SO4, and absorbance was read at 492 nm using Sunrise Tecan spectrophotometer. EC50 values were determined from the % inhibition versus concentration data using a sigmoidal non-linear regression analysis based on four parameters with Tecan Magellan software. When screening at a single concentration, the results were expressed as % inhibition at 15 μM.
as §2, with “a” for “a HCV”, “1b replicon” for “2a infectious virus”, “assay as described in Example 32” for “assay”, “6,” for “7,”

mutant protease R155Q = test: Resistance profile, mutant protease R155Q; type: biochemical, HCV; conditions: ratio of inhibitory activity against mutant enzyme over non-mutant enzyme
Description: (§3) General procedure: Measurement of the inhibitory effect of compounds on HCV protease activity was performed with the SensoLyte™ 620 HCV Protease Assay kit from AnaSpec, Inc. (San Jose, Calif.) under conditions described by the supplier using 1.2 nM HCV NS3-NS4A protease, which was obtained according to Taremi et al. (Protein Science, 1998, 7, 2143-2149). The compounds were tested at a variety of concentrations in assay buffer containing a final DMSO concentration of 5%. Reactions were allowed to proceed for 60 min at room temperature and fluorescence measurements were recorded with a Tecan Infinity Spectrofluorimeter. The IC50 values were determined from the percent inhibition versus concentration data using a sigmoidal non-linear regression analysis based on four parameters with Tecan Magellan software.
(§4) Compounds were evaluated against three mutant proteases R155Q, A156S, and D168A, as summarized in Table 8, wherein A represents a value smaller than 1, and B represents a value between 1 to 10, and C represents a value greater than 10. The fold of change in inhibitory activity was determined by measuring the ratio of the inhibitory activity of a compound against a mutant enzyme over the inhibitory activity of the same compound against non-mutant enzyme. The inhibitory activity was determined using the procedure as described in Example 31.

mutant protease D168A = test: Resistance profile, mutant protease D168A; type: biochemical, HCV; conditions: ratio of inhibitory activity against mutant enzyme over non-mutant enzyme
Description: as §3, §4

mutant protease A156S = test: Resistance profile, mutant protease A156S; type: biochemical, HCV; conditions: ratio of inhibitory activity against mutant enzyme over non-mutant enzyme
Description: as §3, §4

[5] = genotype 1b replicon assay as described in Example 32, read-out: EC50

T1 sequence (P26663 1027-1208): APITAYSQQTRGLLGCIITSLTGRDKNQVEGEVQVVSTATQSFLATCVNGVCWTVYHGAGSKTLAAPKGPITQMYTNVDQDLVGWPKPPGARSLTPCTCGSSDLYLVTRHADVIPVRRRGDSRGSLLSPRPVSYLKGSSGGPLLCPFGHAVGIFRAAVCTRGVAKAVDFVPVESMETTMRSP

SMILES	EC50 [1]	CC50 [2]	EC50 [3]	CC50 ([4]; GS4.1 cells)	IC50 (HCV NS3-NS4A protease)	EC50 (genotype 1b replicon; [5])	Fold-Change R155Q (mutant protease R155Q)	Fold-Change D168A (mutant protease D168A)	Fold-Change A156S (mutant protease A156S)	EC50 (genotype 1b replicon)	CC50 [4]
COc1ccc2c(O[C@H]3C[C@H]4C(=O)N(C)CCCC/C=C\[C@@H]5C[C@@]5(C(=O)NS(=O)(=O)C5CC5)NC(=O)N4C3)cc(-n3ccc(C(F)(F)F)n3)nc2c1Cl [Compound 91e, (Z)-(4R,6S,15S,17S)-[17-[8-chloro-7-methoxy-2-(3-trifluoromethyl-1H-pyrazol-1-yl)quinolin-4-yloxy]-13-N-methyl-2,14-dioxo-1,3,13-triazatricyclo[13.3.0.0]octadec-7-ene-4-yl]carbonyl(cyclopropyl)sulfonamide]	< 1 µM	> 75 µM	< 1 µM	10 to 75 µM	< 1 µM	< 1 µM	A (A represents a value smaller than 1)	C (C represents a value greater than 10)	A (A represents a value smaller than 1)	–	–
COc1ccc2c(O[C@H]3C[C@H]4C(=O)N(C)CCCC/C=C\[C@@H]5C[C@@]5(C(=O)NS(=O)(=O)C5(C)CC5)NC(=O)N4C3)cc(-c3nc(C(C)C)cs3)nc2c1Cl [Compound 56d, (Z)-(4R,6S,15S,17S)-[17-[8-chloro-7-methoxy-2-(4-isopropylthiazol-2-yl)quinolin-4-yloxy]-13-N-methyl-2,14-dioxo-1,3,13-triazatricyclo[13.3.0.0]octadec-7-en-4-yl]carbonyl(1-methyl-cyclopropyl)sulfonamide]	< 1 µM	> 75 µM	< 1 µM	10 to 75 µM	< 1 µM	–	A (A represents a value smaller than 1)	C (C represents a value greater than 10)	A (A represents a value smaller than 1)	< 1 µM	–
COc1ccc2c(O[C@H]3C[C@H]4C(=O)N(C)CCCC/C=C\[C@@H]5C[C@@]5(C(=O)NS(=O)(=O)C5(C)CC5)NC(=O)N4C3)cc(-c3nc(C(C)C)cs3)nc2c1C [Compound 56b, (Z)-(4R,6S,15S,17S)-[17-[7-methoxy-8-methyl-2-(4-isopropylthiazol-2-yl)quinolin-4-yloxy]-13-N-methyl-2,14-dioxo-1,3,13-triazatricyclo[13.3.0.0]octadec-7-en-4-yl]carbonyl(1-methyl-cyclopropyl)sulfonamide]	< 1 µM	> 75 µM	1 to 10 µM	–	< 1 µM	< 1 µM	A (A represents a value smaller than 1)	C (C represents a value greater than 10)	A (A represents a value smaller than 1)	–	10 to 75 µM
